System: facial skin
Assay: Sensory test of cooling sensation, alcohol-free face lotion, 19 trained panelists
Assay type: in vivo, human
Conditions: 0.3% in alcohol-free face lotion
Method: A sensory test was carried out with a group of 19 trained panelists in order to evaluate the performance of the coolant composition according to the present invention of Example 2 consisting of 15% l-menthyl l-lactate, 57.6% racemic neomenthol, 21.8% racemic menthol, 4.8% racemic neoisomenthol and 0.8% racemic isomenthol) for topical applications.
The cooling sensation of the coolant composition of Example 2 was tested in direct comparison to l-menthyl l-lactate. The mixture according to Example 2 and l-menthyl l-lactate were separately incorporated into samples of an alcohol-free face lotion at a level of 0.3%, based on the total weight of the face lotion.
The presented data are average values. The overall cooling sensation was rated on a scale of 1 to 5 (1=very weak; 5=very strong).

CC(C)[C@@H]1CC[C@@H](C)C[C@H]1OC(=O)[C@H](C)O [I-menthyl I-lactate, l-menthyl l-lactate]
How long does the cooling sensation last ? (average): about 9 minutes
When does the cooling sensation become noticeable? (average): after 1 minute
Overall cooling sensation (facial skin) (average, scale of 1 to 5 (1=very weak; 5=very strong)): 2.4
Was the cooling sensation pleasant ? yes (share of panelists answering yes): yes: 73.7%

Source: patent publication US20080085247A1, “Composition of Menthyl Lactate and a Mixture of Menthol Isomers” (SYMRISE GMBH & CO. KG, priority 2004, published 2008)
